Experimental data taken from article doi:10.1101/2021.04.08.439011v1 (biorxiv, 2021).
Where two headings read alike, the source gives them in different places.

Assays:
[1] = target: ABL1 (Homo sapiens, UniProt P00519); conditions: 0.1 µM, binder
[2] = target: AKT2 (Homo sapiens, UniProt P31751); conditions: 0.1 µM; binder
[3] = target: CDK2 (Homo sapiens, UniProt P24941); conditions: 0.1 µM; binder
[4] = target: EPHA2 (Homo sapiens, UniProt P29317); conditions: 0.1 µM; binder
[5] = target: EPHB3 (Homo sapiens, UniProt P54753); conditions: 0.1 µM; binder
[6] = target: ERK5 (Homo sapiens, UniProt Q13164); conditions: 0.1 µM; binder
[7] = target: FLT1 (Homo sapiens, UniProt P17948); conditions: 0.1 µM; binder
[8] = target: FLT3(D835V) (Homo sapiens, UniProt P36888, D835V); conditions: 0.1 µM; binder
[9] = target: FLT3(ITD) (Homo sapiens, UniProt P36888); conditions: 0.1 µM; binder
[10] = target: GRK3 (Homo sapiens, UniProt P35626); conditions: 0.1 µM; binder
[11] = target: HIPK3 (Homo sapiens, UniProt Q9H422); conditions: 0.1 µM; binder
[12] = target: IGF1R (Homo sapiens, UniProt P08069); conditions: 0.1 µM; binder
[13] = target: MAP3K3 (Homo sapiens, UniProt Q99759); conditions: 0.1 µM; binder
[14] = target: MELK (Homo sapiens, UniProt Q14680); conditions: 0.1 µM; binder
[15] = target: MET(Y1235D) (Homo sapiens, UniProt P08581, Y1235D); conditions: 0.1 µM; binder
[16] = target: MLK3 (Homo sapiens, UniProt Q16584); conditions: 0.1 µM; binder
[17] = target: MRCKB (Homo sapiens, UniProt Q9Y5S2); conditions: 0.1 µM; binder
[18] = target: NEK9 (Homo sapiens, UniProt Q8TD19); conditions: 0.1 µM; binder
[19] = target: NLK (Homo sapiens, UniProt Q9UBE8); conditions: 0.1 µM; binder
[20] = target: PAK6 (Homo sapiens, UniProt Q9NQU5); conditions: 0.1 µM; binder
[21] = target: PIK3C2B (Homo sapiens, UniProt O00750); conditions: 0.1 µM; binder
[22] = target: PIK3CA(E545A) (Homo sapiens, UniProt P42336, E545A); conditions: 0.1 µM; binder
[23] = target: PIK3CA(H1047L) (Homo sapiens, UniProt P42336, H1047L); conditions: 0.1 µM; binder
[24] = target: PIP5K1C (Homo sapiens, UniProt O60331); conditions: 0.1 µM; binder
[25] = target: PKN2 (Homo sapiens, UniProt Q16513); conditions: 0.1 µM; binder
[26] = target: RET(M918T) (Homo sapiens, UniProt P07949, M918T); conditions: 0.1 µM; binder
[27] = target: ROCK1 (Homo sapiens, UniProt Q13464); conditions: 0.1 µM; binder
[28] = target: SRMS (Homo sapiens, UniProt Q9H3Y6); conditions: 0.1 µM; binder
[29] = target: SRPK3 (Homo sapiens, UniProt Q9UPE1); conditions: 0.1 µM; binder
[30] = target: STK36 (Homo sapiens, UniProt Q9NRP7); conditions: 0.1 µM; binder
[31] = target: TRKC (Homo sapiens, UniProt Q16288); conditions: 0.1 µM; binder

Chain of ABL1 (P00519 whole entry): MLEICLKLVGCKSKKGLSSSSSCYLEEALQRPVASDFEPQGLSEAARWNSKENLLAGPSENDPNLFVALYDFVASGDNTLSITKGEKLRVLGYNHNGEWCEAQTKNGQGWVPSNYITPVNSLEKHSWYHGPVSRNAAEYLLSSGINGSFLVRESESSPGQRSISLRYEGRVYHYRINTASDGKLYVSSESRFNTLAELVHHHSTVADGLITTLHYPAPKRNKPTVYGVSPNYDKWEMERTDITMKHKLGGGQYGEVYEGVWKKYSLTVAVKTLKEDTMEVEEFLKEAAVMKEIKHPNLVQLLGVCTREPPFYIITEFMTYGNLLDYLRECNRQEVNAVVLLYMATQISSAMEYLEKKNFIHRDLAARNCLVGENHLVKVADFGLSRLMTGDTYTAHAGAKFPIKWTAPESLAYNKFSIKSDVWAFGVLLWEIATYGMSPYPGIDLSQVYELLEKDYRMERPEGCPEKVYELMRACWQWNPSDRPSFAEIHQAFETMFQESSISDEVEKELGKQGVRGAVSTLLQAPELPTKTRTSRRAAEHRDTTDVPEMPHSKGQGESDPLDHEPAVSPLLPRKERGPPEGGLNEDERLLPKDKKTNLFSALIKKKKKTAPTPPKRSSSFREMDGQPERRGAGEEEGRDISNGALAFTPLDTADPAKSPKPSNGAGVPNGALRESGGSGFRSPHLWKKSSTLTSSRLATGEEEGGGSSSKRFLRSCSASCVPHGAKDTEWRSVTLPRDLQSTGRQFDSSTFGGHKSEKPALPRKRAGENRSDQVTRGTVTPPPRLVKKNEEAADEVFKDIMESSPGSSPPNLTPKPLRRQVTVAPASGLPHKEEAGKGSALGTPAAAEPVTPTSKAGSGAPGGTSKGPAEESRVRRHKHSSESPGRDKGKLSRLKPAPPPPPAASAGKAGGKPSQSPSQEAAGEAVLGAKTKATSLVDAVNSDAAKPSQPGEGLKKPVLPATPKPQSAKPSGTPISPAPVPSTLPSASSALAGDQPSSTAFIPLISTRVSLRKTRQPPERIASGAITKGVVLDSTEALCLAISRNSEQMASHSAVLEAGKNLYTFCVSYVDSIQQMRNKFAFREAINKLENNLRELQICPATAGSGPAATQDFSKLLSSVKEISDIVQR
Chain of ROCK1 (Q13464 whole entry): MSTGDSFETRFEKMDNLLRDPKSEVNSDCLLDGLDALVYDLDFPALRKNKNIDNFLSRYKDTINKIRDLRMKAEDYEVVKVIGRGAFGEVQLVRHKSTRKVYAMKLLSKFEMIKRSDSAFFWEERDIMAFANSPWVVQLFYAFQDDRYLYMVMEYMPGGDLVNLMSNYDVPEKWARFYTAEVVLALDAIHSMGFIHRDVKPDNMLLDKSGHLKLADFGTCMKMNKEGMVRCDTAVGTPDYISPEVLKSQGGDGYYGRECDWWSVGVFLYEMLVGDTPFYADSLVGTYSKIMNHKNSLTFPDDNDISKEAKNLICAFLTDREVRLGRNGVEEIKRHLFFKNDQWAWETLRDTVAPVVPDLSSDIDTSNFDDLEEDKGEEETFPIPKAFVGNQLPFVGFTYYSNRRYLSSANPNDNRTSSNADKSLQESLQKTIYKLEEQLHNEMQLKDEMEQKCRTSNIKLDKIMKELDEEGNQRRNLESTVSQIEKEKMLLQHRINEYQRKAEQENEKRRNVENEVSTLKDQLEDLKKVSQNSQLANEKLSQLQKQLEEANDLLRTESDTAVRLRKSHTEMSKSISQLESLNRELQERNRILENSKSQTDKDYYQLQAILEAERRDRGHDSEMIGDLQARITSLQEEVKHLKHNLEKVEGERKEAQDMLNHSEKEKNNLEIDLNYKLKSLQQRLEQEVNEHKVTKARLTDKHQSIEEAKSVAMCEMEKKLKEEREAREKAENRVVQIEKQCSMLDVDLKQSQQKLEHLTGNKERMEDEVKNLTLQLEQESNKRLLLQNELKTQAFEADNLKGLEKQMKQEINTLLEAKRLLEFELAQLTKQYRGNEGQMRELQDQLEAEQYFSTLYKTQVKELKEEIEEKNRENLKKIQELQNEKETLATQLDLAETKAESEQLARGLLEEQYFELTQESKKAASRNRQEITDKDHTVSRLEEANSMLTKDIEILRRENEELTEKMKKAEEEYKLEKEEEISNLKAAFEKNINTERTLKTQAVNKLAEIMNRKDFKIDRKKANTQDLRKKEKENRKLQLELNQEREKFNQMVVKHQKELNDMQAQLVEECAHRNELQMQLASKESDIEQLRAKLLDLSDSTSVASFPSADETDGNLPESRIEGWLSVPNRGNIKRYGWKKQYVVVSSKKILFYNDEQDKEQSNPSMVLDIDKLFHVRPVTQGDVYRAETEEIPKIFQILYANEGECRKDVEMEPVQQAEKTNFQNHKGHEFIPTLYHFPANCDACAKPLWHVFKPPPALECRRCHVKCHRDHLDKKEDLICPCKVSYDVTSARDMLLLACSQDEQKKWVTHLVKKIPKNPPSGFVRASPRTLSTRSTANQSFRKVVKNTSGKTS
Chain of EPHB3 (P54753 whole entry): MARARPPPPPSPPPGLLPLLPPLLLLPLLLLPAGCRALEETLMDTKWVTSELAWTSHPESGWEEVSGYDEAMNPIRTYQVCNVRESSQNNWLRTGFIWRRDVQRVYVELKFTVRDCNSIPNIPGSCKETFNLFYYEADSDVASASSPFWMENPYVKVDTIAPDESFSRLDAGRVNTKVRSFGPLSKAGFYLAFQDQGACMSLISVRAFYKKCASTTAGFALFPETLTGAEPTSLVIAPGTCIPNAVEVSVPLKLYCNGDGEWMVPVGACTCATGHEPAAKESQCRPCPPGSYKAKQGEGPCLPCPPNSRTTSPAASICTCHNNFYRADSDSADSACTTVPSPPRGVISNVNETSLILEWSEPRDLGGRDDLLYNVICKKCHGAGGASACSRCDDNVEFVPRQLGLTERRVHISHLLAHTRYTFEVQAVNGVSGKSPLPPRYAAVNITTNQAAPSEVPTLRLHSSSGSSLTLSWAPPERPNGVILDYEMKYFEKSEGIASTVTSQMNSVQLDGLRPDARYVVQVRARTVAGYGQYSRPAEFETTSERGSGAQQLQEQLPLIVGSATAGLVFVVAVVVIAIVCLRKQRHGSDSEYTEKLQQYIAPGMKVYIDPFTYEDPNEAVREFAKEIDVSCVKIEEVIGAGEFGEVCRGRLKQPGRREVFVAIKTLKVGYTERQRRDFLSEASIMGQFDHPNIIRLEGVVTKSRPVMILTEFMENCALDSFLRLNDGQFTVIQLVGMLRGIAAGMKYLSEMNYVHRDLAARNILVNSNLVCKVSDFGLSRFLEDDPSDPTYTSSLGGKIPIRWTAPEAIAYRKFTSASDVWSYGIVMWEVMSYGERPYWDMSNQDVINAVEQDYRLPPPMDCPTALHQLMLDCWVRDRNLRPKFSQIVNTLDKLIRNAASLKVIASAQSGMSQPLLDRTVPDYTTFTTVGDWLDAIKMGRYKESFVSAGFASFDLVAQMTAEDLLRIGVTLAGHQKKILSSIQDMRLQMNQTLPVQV
Chain of PKN2 (Q16513 whole entry): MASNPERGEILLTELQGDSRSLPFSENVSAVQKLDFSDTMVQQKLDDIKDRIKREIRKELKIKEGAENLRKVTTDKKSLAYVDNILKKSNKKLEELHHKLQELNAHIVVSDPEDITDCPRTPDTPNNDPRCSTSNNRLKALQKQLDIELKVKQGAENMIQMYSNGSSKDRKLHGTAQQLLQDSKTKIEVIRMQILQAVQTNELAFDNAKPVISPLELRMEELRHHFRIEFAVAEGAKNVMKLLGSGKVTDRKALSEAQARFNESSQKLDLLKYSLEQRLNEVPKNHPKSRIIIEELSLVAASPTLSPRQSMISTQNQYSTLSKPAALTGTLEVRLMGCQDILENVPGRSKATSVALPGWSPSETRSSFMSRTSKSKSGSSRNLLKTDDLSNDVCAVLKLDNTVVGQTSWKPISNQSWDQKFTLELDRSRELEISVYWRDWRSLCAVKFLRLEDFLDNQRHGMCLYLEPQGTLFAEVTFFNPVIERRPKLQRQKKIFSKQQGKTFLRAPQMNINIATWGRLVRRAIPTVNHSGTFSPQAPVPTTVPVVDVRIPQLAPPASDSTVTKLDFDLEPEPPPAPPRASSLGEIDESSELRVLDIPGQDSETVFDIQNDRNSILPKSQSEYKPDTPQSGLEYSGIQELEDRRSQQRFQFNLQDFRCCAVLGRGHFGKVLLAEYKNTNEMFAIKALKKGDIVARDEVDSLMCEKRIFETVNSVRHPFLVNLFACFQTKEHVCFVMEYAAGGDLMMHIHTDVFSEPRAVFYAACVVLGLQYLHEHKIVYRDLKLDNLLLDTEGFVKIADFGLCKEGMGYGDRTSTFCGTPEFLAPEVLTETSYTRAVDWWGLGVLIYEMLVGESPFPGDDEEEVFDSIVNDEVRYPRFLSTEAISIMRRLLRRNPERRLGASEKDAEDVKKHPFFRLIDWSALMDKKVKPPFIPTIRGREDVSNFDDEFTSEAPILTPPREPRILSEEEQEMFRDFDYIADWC
Chain of SRMS (Q9H3Y6 whole entry): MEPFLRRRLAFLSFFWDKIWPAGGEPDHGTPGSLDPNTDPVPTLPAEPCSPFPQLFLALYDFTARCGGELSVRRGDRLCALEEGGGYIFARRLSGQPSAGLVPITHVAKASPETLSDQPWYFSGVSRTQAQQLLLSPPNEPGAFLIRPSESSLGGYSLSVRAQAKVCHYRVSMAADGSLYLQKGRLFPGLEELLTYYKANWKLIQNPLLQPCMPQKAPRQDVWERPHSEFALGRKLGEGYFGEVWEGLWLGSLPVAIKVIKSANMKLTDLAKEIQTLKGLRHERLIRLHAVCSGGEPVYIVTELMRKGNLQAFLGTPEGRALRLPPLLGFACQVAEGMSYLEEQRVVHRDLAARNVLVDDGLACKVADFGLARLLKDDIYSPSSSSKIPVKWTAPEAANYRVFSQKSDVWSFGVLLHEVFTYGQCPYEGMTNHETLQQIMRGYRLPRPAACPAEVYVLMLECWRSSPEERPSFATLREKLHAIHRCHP

**Q.** How did the “Percent Control” value ([1]; nonphosphorylated) turn out when CNc1ncc2cc(-c3ccc(-c4cccc(C)n4)cc3Cl)c(=O)n(C[C@H]3OC[C@H](N)CO3)c2n1 [compound 6, G-5555] was run?
**A.** The value was 94%.

**Q.** And the “Percent Control” value ([1]; phosphorylated)?
**A.** Its value is 95%.

**Q.** And the “Percent Control” value [2]?
**A.** Its value is 100%.

**Q.** And the “Percent Control” value [3]?
**A.** Its value is 96%.

**Q.** And the “Percent Control” value [4]?
**A.** The value was 100%.

**Q.** What about the “Percent Control” value [5] of the same molecule?
**A.** Its value is 100%.

**Q.** And the “Percent Control” value [6]?
**A.** The value was 98%.

**Q.** What about the “Percent Control” value [7] of the same molecule?
**A.** The value was 94%.

**Q.** And the “Percent Control” value [8]?
**A.** Its value is 85%.

**Q.** What about the “Percent Control” value [9] of the same molecule?
**A.** The value was 100%.

**Q.** What about the “Percent Control” value [10] of the same molecule?
**A.** The value was 83%.

**Q.** And the “Percent Control” value [11]?
**A.** Its value is 86%.

**Q.** What about the “Percent Control” value [12] of the same molecule?
**A.** Its value is 100%.

**Q.** And the “Percent Control” value [13]?
**A.** Its value is 86%.

**Q.** And the “Percent Control” value [14]?
**A.** Its value is 51%.

**Q.** And the “Percent Control” value [15]?
**A.** Its value is 100%.

**Q.** And the “Percent Control” value [16]?
**A.** Its value is 100%.

**Q.** What about the “Percent Control” value [17] of the same molecule?
**A.** Its value is 73%.

**Q.** And the “Percent Control” value [18]?
**A.** Its value is 100%.

**Q.** And the “Percent Control” value [19]?
**A.** The value was 73%.

**Q.** What about the “Percent Control” value [20] of the same molecule?
**A.** The value was 92%.

**Q.** What about the “Percent Control” value [21] of the same molecule?
**A.** The value was 88%.

**Q.** What about the “Percent Control” value [22] of the same molecule?
**A.** Its value is 88%.

**Q.** And the “Percent Control” value [23]?
**A.** The value was 100%.

**Q.** What about the “Percent Control” value [24] of the same molecule?
**A.** Its value is 100%.

**Q.** And the “Percent Control” value [25]?
**A.** Its value is 100%.

**Q.** And the “Percent Control” value [26]?
**A.** Its value is 100%.

**Q.** And the “Percent Control” value [27]?
**A.** The value was 83%.

**Q.** And the “Percent Control” value [28]?
**A.** The value was 99%.

**Q.** What about the “Percent Control” value [29] of the same molecule?
**A.** The value was 100%.

**Q.** And the “Percent Control” value [30]?
**A.** Its value is 36%.

**Q.** And the “Percent Control” value [31]?
**A.** The value was 84%.
